Experiment [1] concerns the target T1, RelBs^NTD2:DarB2 complex (DarB:RelBs^NTD) (Bacillus subtilis, UniProt O54408).
T1 construct: gene relA; heterotetramer of Rel residues 1 to 373 with full-length DarB, His10-SUMO tags cleaved, complex purified by size exclusion chromatography; with CBS domain-containing protein YkuL
The experiment in a line: stopped-flow FRET, Kd = koff/kon. Conditions: read-out: Kd^MANT-ATP. The experiment is classed as binding.

Another experiment has as its target T2, RelBs^NTD (Bacillus subtilis, UniProt O54408).
T2 construct: gene relA; N-terminal domain region, residues 1 to 373 (HD, SYNTH and core domains), His10-SUMO tag cleaved with Ulp1, from E. coli BL21(DE3)
The experiment in a line: isothermal titration calorimetry. The experiment is classed as binding. Conditions: 25°C; pH 7.5; 10 mM MgCl2.

For experiment [2], the target named is T1, RelBs^NTD2:DarB2 complex (DarB:RelBs^NTD). The experiment in a line: isothermal titration calorimetry. The experiment is classed as binding.
The next experiment addresses DarB (Bacillus subtilis, UniProt O31698). The experiment in a line: biochemical.

One may read the Kd as the constant that tells how readily two partners part at equilibrium.

Structures are written as SMILES.

T1 sequence (O54408 1-373): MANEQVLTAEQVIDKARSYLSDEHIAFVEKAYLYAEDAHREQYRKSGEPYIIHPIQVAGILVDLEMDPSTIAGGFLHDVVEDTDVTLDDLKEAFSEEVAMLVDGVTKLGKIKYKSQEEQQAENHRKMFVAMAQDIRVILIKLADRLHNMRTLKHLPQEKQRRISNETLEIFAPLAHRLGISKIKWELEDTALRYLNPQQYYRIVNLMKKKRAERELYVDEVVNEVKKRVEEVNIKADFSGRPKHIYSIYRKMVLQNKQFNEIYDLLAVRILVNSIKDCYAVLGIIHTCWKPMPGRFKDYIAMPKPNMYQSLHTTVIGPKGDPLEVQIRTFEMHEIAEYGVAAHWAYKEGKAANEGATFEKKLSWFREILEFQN
T1 sequence (O31698 whole entry, further chain, the tested form may be a part): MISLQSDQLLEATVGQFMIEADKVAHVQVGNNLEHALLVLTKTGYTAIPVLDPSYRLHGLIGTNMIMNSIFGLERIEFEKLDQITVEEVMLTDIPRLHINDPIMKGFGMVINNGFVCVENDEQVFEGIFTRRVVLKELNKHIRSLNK
Chain of DarB (O31698 whole entry): as the sequence (O31698 whole entry, further chain, the tested form may be a part) above
T2 sequence (O54408 1-373): as the sequence (O54408 1-373) above

As to `CNc1ccccc1C(=O)O[C@H]1[C@@H](O)[C@H](n2cnc3c(N)ncnc32)O[C@@H]1CO[P@@](=O)(O)O[P@](=O)(O)OP(=O)(O)O` (mixture of isomers) [MANT-ATP], the Kd in experiment [1] worked out at 308 µM.

In the case of `Nc1ncnc2c1ncn2[C@@H]1O[C@H](COP(=O)(O)CP(=O)(O)OP(=O)(O)O)[C@@H](O)[C@H]1O` [APCPP, adenosine-5′-[(α,β)-methyleno]triphosphate], the isothermal titration calorimetry result on RelBs^NTD is reported as “RelBs^NTD alone has low affinity to APCPP (Fig. 5G)”. In experiment [2] (read-out: Kd^APCPP), the dissociation constant (Kd) is 115 µM.

The compound `Nc1ncnc2c1ncn2[C@@H]1O[C@@H]2COP(=O)(O)O[C@H]3[C@@H](O)[C@H](n4cnc5c(N)ncnc54)O[C@@H]3COP(=O)(O)O[C@H]2[C@H]1O` [c-di-AMP] had a Kd on DarB of 0.0457 µM.

For the compound `Nc1nc2c(ncn2[C@@H]2O[C@H](COP(=O)(O)OP(=O)(O)OP(=O)(O)O)[C@@H](OP(=O)(O)OP(=O)(O)O)[C@H]2O)c(=O)[nH]1` [pppGpp], the Kd in experiment [2] (read-out: Kd) was 8.2 µM.

Source of the values: publication PMC9848473 (Science Advances, 2023).
